# Results published in the SangsterLogP compilation.
row,logP,SMILES
1,-0.33,O=C(OCC1OC(OC(=O)c2cc(O)c(O)c(O)c2)C(O)C(O)C1O)c1cc(O)c(O)c(O)c1 (stereo not given)
2,-0.35,O=CC(O)(COC(=O)c1cc(O)c(O)c(O)c1)C(O)C(O)COC(=O)c1cc(O)c(O)c(O)c1 (stereo not given)
3,1.28,O=C(O[C@@H]1COC(=O)c2cc(O)c(O)c(O)c2-c2c(cc(O)c(O)c2O)C(=O)OC1[C@@H]1OC(=O)c2cc(O)c(O)c(O)c2-c2c(O)c(O)c(O)c3c2C(=O)O[C@H]1[C@H]3O)c1cc(O)c(O)c(O)c1 (stereo not given in full)
4,-2.1,O=C1OC[C@H]2OC(O)[C@@H]3OC(=O)c4cc(O)c(O)c(O)c4-c4c(cc(O)c(O)c4O)C(=O)O[C@H]3[C@@H]2OC(=O)c2cc(O)c(O)c(O)c2-c2c1cc(O)c(O)c2O (stereo not given in full)
5,-1.19,O=C(O[C@@H]1O[C@@H]2COC(=O)c3cc(O)c(O)c(O)c3-c3c(cc(O)c(O)c3O)C(=O)O[C@H]([C@H]1O)[C@@H]2O)c1cc(O)c(O)c(O)c1
6,0.7,O=c1c(O[C@@H]2O[C@H](CO)[C@@H](O)[C@H](O)[C@H]2O)c(-c2ccc(O)c(O)c2)oc2cc(O)cc(O)c12
7,-2.7,O=CC1OC(=O)c2cc(O)c(O)c(O)c2-c2c(cc(O)c(O)c2O)C(=O)OC1C1OC(=O)c2cc(O)c(O)c(O)c2-c2c(O)c(O)c3oc(=O)c4c(c(O)c(O)c5oc(=O)c2c3c54)-c2c(cc(O)c(O)c2O)C(=O)OCC1O (stereo not given)
8,0.61,O=C(OCC1O[C@@H](O)C(O)(COC(=O)c2cc(O)c(O)c(O)c2)C1OC(=O)c1cc(O)c(O)c(O)c1)c1cc(O)c(O)c(O)c1 (stereo not given in full)
9,-0.52,Oc1cc(O)c2c(c1)OC(c1ccc(O)c(O)c1)C(O)C2c1c(O)cc(O)c2c1O[C@H](c1ccc(O)c(O)c1)[C@@H](O)C2 (stereo in doubt)

# More lines, now with the values behind:
row,SMILES,logP
1,COc1cc(O)c2c(=O)cc(C)oc2c1,1
2,O=C(OC[C@H]1OC(O)[C@@H]2OC(=O)c3cc(O)c(O)c(O)c3-c3c(cc(O)c(O)c3O)C(=O)O[C@H]2[C@@H]1OC(=O)c1cc(O)c(O)c(O)c1-c1c(O)c(O)c2oc(=O)c3cc(O)c(O)c4oc(=O)c1c2c43)c1cc(O)c(O)c(O)c1 (stereo not given in full),-2.15
3,O=C(O[C@@H]1O[C@@H]2COC(=O)c3cc(O)c(O)c(O)c3-c3c(cc(O)c(O)c3O)C(=O)O[C@H]2[C@@H]2OC(=O)c3cc(O)c(O)c(O)c3-c3c(cc(O)c(O)c3O)C(=O)O[C@@H]12)c1cc(O)c(O)c(O)c1,-1.07
4,O=C(O[C@H]1Cc2c(O)cc(O)cc2O[C@H]1c1ccc(O)c(O)c1)c1cc(O)c(O)c(O)c1,1.68
5,O=C(O[C@@H]1Cc2c(O)cc(O)cc2O[C@@H]1c1cc(O)c(O)c(O)c1)c1cc(O)c(O)c(O)c1,1.08
6,O=C(O[C@@H]1O[C@H](CO)[C@@H](O)[C@H](O)[C@H]1O)c1cc(O)c(O)c(O)c1,-1.89
